Laboratory results: ChEMBL document CHEMBL6103629 (J Med Chem, 2025)

How the values were obtained:
[1] = tested on: CWR22R; experiment: Antiproliferative activity against human 22Rv1 cells incubated for 120 hrs by Cell-titer Glo luminescent assay; conditions: 22Rv1, 120 h
[2] = target: Serine/threonine-protein kinase ATR (Homo sapiens, UniProt Q13535); experiment: Inhibition of ATR (unknown origin) assessed as reduction in p53 phosphorylation level incubated for 30 mins by TR-FRET assay
[3] = tested on: NCI-H1703; experiment: Antitumor activity against human NCI-H1703 cells xenografted in female Balb/c nude mouse assessed as tumor growth inhibition at 50 mg/kg […] administered as 3 days on and 4 days off schedule for 4 weeks relative to control; format: functional; conditions: NCI-H1703, 672 h, time 28 day, read-out: TGI
[4] = tested on: LoVo; experiment: Antiproliferative activity against human LoVo cells assessed as reduction in cell viability incubated for 120 hrs by Cell-titer Glo luminescent assay

Sequence of Serine/threonine-protein kinase ATR (Q13535 whole entry): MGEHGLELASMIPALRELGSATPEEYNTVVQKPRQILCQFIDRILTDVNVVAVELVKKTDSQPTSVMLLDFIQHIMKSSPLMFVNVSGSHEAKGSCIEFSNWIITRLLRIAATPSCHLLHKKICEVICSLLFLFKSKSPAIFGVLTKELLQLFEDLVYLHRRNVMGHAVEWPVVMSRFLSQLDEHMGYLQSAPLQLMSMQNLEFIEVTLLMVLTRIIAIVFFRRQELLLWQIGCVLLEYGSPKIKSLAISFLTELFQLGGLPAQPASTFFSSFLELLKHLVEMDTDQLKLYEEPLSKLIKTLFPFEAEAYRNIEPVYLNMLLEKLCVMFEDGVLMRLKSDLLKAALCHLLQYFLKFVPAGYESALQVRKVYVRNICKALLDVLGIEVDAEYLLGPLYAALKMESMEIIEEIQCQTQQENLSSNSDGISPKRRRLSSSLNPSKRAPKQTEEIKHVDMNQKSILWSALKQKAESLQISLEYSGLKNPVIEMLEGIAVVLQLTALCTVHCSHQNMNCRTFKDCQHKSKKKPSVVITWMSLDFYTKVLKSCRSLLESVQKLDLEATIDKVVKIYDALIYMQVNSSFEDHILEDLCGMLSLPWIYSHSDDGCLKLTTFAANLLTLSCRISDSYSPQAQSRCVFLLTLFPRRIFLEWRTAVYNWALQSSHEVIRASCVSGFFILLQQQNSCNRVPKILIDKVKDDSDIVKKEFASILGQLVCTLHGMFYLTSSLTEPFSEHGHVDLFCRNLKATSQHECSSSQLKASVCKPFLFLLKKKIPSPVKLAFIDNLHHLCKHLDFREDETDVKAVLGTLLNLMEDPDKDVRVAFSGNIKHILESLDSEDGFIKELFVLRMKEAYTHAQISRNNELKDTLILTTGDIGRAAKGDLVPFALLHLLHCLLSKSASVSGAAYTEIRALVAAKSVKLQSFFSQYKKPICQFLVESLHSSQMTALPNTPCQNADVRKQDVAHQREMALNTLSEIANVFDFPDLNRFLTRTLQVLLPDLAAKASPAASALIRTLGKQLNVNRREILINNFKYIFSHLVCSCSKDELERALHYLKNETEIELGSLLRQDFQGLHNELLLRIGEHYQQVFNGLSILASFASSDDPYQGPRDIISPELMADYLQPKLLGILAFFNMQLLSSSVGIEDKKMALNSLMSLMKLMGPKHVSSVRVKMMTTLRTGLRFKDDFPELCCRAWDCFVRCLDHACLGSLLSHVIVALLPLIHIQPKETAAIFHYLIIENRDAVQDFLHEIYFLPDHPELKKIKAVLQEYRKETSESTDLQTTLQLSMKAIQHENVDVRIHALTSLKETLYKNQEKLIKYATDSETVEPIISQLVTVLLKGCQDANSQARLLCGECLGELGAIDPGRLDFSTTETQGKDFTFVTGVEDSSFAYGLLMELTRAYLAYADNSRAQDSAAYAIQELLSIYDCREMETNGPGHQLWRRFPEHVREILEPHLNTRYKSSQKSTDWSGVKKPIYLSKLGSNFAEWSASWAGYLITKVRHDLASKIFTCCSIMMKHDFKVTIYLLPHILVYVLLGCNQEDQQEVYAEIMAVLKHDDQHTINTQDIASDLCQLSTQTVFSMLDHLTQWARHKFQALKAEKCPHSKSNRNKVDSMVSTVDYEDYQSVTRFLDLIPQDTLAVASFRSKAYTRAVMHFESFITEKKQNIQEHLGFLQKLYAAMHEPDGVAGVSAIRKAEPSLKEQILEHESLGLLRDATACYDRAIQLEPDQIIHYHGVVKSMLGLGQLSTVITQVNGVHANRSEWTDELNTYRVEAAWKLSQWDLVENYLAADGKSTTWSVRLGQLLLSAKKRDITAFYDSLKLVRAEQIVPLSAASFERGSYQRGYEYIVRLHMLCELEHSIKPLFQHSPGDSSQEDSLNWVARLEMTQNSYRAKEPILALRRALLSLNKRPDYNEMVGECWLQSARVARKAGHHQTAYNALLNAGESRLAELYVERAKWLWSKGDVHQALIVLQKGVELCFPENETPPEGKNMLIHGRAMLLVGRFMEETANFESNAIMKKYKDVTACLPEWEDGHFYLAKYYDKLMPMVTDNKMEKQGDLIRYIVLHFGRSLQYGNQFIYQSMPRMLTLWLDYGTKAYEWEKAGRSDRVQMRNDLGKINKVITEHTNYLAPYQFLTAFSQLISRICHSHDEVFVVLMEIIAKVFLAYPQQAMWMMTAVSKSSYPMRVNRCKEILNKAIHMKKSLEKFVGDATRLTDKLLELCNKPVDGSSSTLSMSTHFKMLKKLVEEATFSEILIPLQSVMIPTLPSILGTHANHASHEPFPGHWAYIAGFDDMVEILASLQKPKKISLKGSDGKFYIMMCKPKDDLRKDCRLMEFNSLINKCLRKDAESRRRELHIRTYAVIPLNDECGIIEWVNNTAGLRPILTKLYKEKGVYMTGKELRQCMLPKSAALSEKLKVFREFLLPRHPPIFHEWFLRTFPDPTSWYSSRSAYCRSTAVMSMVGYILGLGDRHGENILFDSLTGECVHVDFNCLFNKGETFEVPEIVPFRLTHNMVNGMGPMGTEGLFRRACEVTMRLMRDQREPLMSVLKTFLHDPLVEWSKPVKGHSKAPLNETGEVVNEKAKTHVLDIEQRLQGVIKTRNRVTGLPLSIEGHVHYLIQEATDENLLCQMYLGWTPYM

Structure (SMILES)	IC50 [1] [nM]	other results
Cc1nn(C2CCNCC2)c(C)c1-c1cc(N2CC3CCC(C2)O3)nc2c(-c3ccn[nH]3)cnn12	4340	–
Cc1n[nH]c(C)c1-c1cc(N2CC3CCC(C2)O3)nc2c(-c3ccnn3C)cnn12	6480	IC50 [2]: > 500 nM
Nc1ccn([C@@H]2O[C@H](CO)[C@@H](O)C2(F)F)c(=O)n1 [GEMCITABINE]	–	inhibition in vivo at 50 mg/kg [3]: 76.7%
Cc1n[nH]c(C)c1-c1nc(N2CCOC[C@H]2C)c2nc(-c3cccc4[nH]ccc34)ccc2n1	–	IC50 [4]: 246 nM
Cc1nn(-c2cncc(F)c2)c(C)c1-c1cc(N2CC3CCC(C2)O3)nc2c(-c3ccn[nH]3)cnn12	1330	–
Cc1nn(-c2ccncc2)c(C)c1-c1cc(N2CC3CCC(C2)O3)nc2c(-c3ccn[nH]3)cnn12	1790	–
Cc1n[nH]c(C)c1-c1cc(N2CC3CCC(C2)O3)n2ncc(-c3ccccc3)c2n1	> 10000	IC50 [2]: > 500 nM
Cc1cc(-c2cnn3c(-c4c(C)nn(-c5cccnc5)c4C)cc(N4CC5CCC(C4)O5)nc23)[nH]n1	150	–
Cc1nn(-c2cncc(C(F)(F)F)c2)c(C)c1-c1cc(N2CC3CCC(C2)O3)nc2c(-c3ccn[nH]3)cnn12	2820	–
Cc1n[nH]c(C)c1-c1cc(N2CC3CCC(C2)O3)n2ncc(-c3ccnn3C)c2n1	6730	–
Cc1nn(C2CCCNC2)c(C)c1-c1cc(N2CC3CCC(C2)O3)nc2c(-c3ccn[nH]3)cnn12 (centres undefined)	4530	–
Cc1nn(-c2cccnc2)c(C)c1-c1cc(N2C[C@@H]3C[C@H]2CO3)nc2c(-c3ccn[nH]3)cnn12	4080	–
Cc1n[nH]c(C)c1-c1cc(N2CC3CCC(C2)O3)n2ncc(-c3cnn(C)c3)c2n1	943	–
Cc1n[nH]c(C)c1-c1cc(N2CC3CCC(C2)O3)n2ncc(-c3cn[nH]c3)c2n1	1720	–
Cc1nn(-c2cncc(C(F)F)c2)c(C)c1-c1cc(N2CC3CCC(C2)O3)nc2c(-c3ccn[nH]3)cnn12	972	–
Cc1nn(-c2ccc(N)nc2)c(C)c1-c1cc(N2CC3CCC(C2)O3)nc2c(-c3ccn[nH]3)cnn12	199	–
Cc1nn(-c2cncc(Br)c2)c(C)c1-c1cc(N2CC3CCC(C2)O3)nc2c(-c3ccn[nH]3)cnn12	437	–
